Tested on: CD34+ cells
Test: Three-stage method with SR-1 or CH223191 in Stage 1 and Stage 2 media: NK cell expansion, purity, cytotoxicity
Assay type: cell-based
Details: for effects on fold expansion, cell purity (CD56+CD3−), and cytotoxicity of K562 cells at a 10:1 (E:T) ratio: SR-1 and CH223191 compared at 10 μM and 1 μM
Method: CD34^+ cells are cultured in the following medium formulations for the indicated number of days, and aliquots of cells are taken for assessment of cell count, cell viability, characterization of natural killer cell differentiation and functional evaluation.
Stage 1 medium: 90% Stem Cell Growth Medium (SCGM) (CellGro®), 10% Human Serum-AB, supplemented with 4.5 U/mL low molecular weight heparin (LMWH), 25 ng/mL recombinant human thrombopoietin (TPO), 25 ng/mL recombinant human Flt3L, 27 ng/mL recombinant human stem cell factor (SCF), 25 ng/mL recombinant human IL-7, 0.05 ng/mL recombinant human IL-6 (500-fold), 0.25 ng/mL recombinant human granulocyte colony-stimulating factor (G-CSF) (50-fold), 0.01 ng/mL recombinant human granulocyte-macrophage colony-stimulating factor (GM-CSF) (500-fold), 0.10% gentamicin, and 1 to 10 μm StemRegenin-1 (SR-1).
Stage 2 medium: 90% SCGM, 10% Human Serum-AB, supplemented with 4.5 U/mL low molecular weight heparin (LMWH), 25 ng/mL recombinant human Flt3L, 27 ng/mL recombinant human SCF, 25 ng/mL recombinant human IL-7, 20 ng/mL recombinant human IL-15, 0.05 ng/mL recombinant human IL-6 (500-fold), 0.25 ng/mL recombinant human G-CSF (50-fold), 0.01 ng/mL recombinant human GM-CSF (500-fold), 0.10% gentamicin, and 1 to 10 μm SR1.
Stemregenin-1 (SR-1) was evaluated as a component of Stage 1 and Stage 2 media using the three-stage method outlined in Example 1, above, at concentrations of 1 μM, 10 μM, and 30 μM. The same concentrations of CH223191 in the three-stage method were also evaluated.

SMILES	effects on fold expansion, cell purity (CD56+CD3−), and cytotoxicity of K562 cells at a 10:1 (E:T) ratio	cytotoxicity of the NK cells produced (SR-1 at 10 μM versus 1 μM and 30 μM in Stage 1 and Stage 2 media)
Cc1ccccc1/N=N/c1ccc(NC(=O)c2ccnn2C)c(C)c1 [CH223191, 1-methyl-N-(2-methyl-4-(2-(2-methylphenyl)diazenyl)phenyl)-1H-pyrazole-5-carboxamide]	Comparable effects	
CC(C)n1cnc2c(NCCc3ccc(O)cc3)nc(-c3csc4ccccc34)nc21 [SR-1, 4-(2-(2-(benzo[b]thien-3-yl)-9-isopropyl-9H-purin-6-ylamino)ethyl)phenol]	Comparable effects	higher cytotoxicity than the other two concentrations tested

Reference: patent US20180008637A1, “NATURAL KILLER CELLS AND USES THEREOF” (ANTHROGENESIS CORPORATION, priority 2014, published 2018)
